Results on ten cell lines are retold here after the supplement of paper PMC10307832.

Compound in the assay “Motesanib + AZD7762”: CC1(C)CNc2cc(NC(=O)c3cccnc3NCc3ccncc3)ccc21 [Motesanib] + NC(=O)Nc1cc(-c2cccc(F)c2)sc1C(=O)N[C@H]1CCCNC1 [AZD7762] (partner 0.2 µM)
Nature of the assay: relative viability (nuclei count vs DMSO), 5 days (fraction); higher = more cells survive. In short, it runs like this:
(§1)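 Five library-drug doses in √10 steps were combined with a fixed anchor-drug dose, or a single drug was given alone, by pin tool to lung cancer cell lines in 1536-well plates the day after seeding. Nuclei were stained and counted after 5 days. Relative viability is the nuclei count in treated wells over that in vehicle wells, taken as the median of duplicate plates.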

Compound in the assay “Motesanib + Vorinostat”: CC1(C)CNc2cc(NC(=O)c3cccnc3NCc3ccncc3)ccc21 [Motesanib] + O=C(CCCCCCC(=O)Nc1ccccc1)NO [Vorinostat] (partner 1 µM)
The description is as above. An outline of the steps:
as §1

For NCI-H2126, the relative viability in the assay with Motesanib + AZD7762 (first compound 0.01 µM) worked out at 1.04; with Motesanib + AZD7762 (first compound 0.03162 µM), 1.05; with Motesanib + AZD7762 (first compound 0.1 µM), 0.999; with Motesanib + AZD7762 (first compound 0.3162 µM), 1.03; in the assay with Motesanib + AZD7762 (first compound 1 µM), 1.09; in the assay with Motesanib + Vorinostat (first compound 0.01 µM) it was 0.858. Besides, the relative viability in the assay with Motesanib + Vorinostat (first compound 0.03162 µM) was 0.774; in the assay with Motesanib + Vorinostat (first compound 0.1 µM), 0.643; with Motesanib + Vorinostat (first compound 0.3162 µM) it was 0.926; with Motesanib + Vorinostat (first compound 1 µM), 0.813.

With NCI-H2170, the relative viability with Motesanib + AZD7762 (first compound 0.01 µM) worked out at 0.871; with Motesanib + AZD7762 (first compound 0.03162 µM), 0.865; in the assay with Motesanib + AZD7762 (first compound 0.1 µM) it was 0.82; with Motesanib + AZD7762 (first compound 0.3162 µM), 0.75; with Motesanib + AZD7762 (first compound 1 µM) it was 0.755; with Motesanib + Vorinostat (first compound 0.01 µM), 0.797. In addition, the relative viability worked out at 0.851 in the assay with Motesanib + Vorinostat (first compound 0.03162 µM), 0.804 with Motesanib + Vorinostat (first compound 0.1 µM), 0.837 with Motesanib + Vorinostat (first compound 0.3162 µM) and 0.818 in the assay with Motesanib + Vorinostat (first compound 1 µM).

In the case of NCI-H2342, the relative viability worked out at 0.46 in the assay with Motesanib + AZD7762 (first compound 0.01 µM); 0.515 in the assay with Motesanib + AZD7762 (first compound 0.03162 µM); 0.571 in the assay with Motesanib + AZD7762 (first compound 0.1 µM); 0.476 with Motesanib + AZD7762 (first compound 0.3162 µM); 0.459 with Motesanib + AZD7762 (first compound 1 µM); 0.702 with Motesanib + Vorinostat (first compound 0.01 µM). Also, the relative viability was determined as 0.77 with Motesanib + Vorinostat (first compound 0.03162 µM), 0.715 in the assay with Motesanib + Vorinostat (first compound 0.1 µM), 0.704 with Motesanib + Vorinostat (first compound 0.3162 µM) and 0.751 with Motesanib + Vorinostat (first compound 1 µM).

Take NCI-H2347: the relative viability with Motesanib + AZD7762 (first compound 0.01 µM) stood at 0.738; with Motesanib + AZD7762 (first compound 0.03162 µM) it was 0.825; with Motesanib + AZD7762 (first compound 0.1 µM), 0.749; with Motesanib + AZD7762 (first compound 0.3162 µM), 0.674; with Motesanib + AZD7762 (first compound 1 µM), 0.712; in the assay with Motesanib + Vorinostat (first compound 0.01 µM) it was 0.538. In addition, the relative viability was 0.555 in the assay with Motesanib + Vorinostat (first compound 0.03162 µM), 0.527 with Motesanib + Vorinostat (first compound 0.1 µM), 0.704 in the assay with Motesanib + Vorinostat (first compound 0.3162 µM) and 0.621 with Motesanib + Vorinostat (first compound 1 µM).

For NCI-H2405, the relative viability with Motesanib + AZD7762 (first compound 0.01 µM) was determined as 0.629; with Motesanib + AZD7762 (first compound 0.03162 µM) it was 0.632; in the assay with Motesanib + AZD7762 (first compound 0.1 µM), 0.691; with Motesanib + AZD7762 (first compound 0.3162 µM) it was 0.812; in the assay with Motesanib + AZD7762 (first compound 1 µM), 0.765; in the assay with Motesanib + Vorinostat (first compound 0.01 µM), 0.941. For the same cell line, the relative viability with Motesanib + Vorinostat (first compound 0.03162 µM) worked out at 0.989; in the assay with Motesanib + Vorinostat (first compound 0.1 µM), 0.96; in the assay with Motesanib + Vorinostat (first compound 0.3162 µM) it was 1; with Motesanib + Vorinostat (first compound 1 µM), 0.994.

As to NCI-H3122, the relative viability was found to be 0.972 in the assay with Motesanib + AZD7762 (first compound 0.01 µM); 1.02 with Motesanib + AZD7762 (first compound 0.03162 µM); 0.945 with Motesanib + AZD7762 (first compound 0.1 µM); 1.06 in the assay with Motesanib + AZD7762 (first compound 0.3162 µM); 1.15 with Motesanib + AZD7762 (first compound 1 µM); 0.962 with Motesanib + Vorinostat (first compound 0.01 µM). Besides, the relative viability is 1.05 in the assay with Motesanib + Vorinostat (first compound 0.03162 µM), 1.08 in the assay with Motesanib + Vorinostat (first compound 0.1 µM), 1.12 with Motesanib + Vorinostat (first compound 0.3162 µM) and 1 in the assay with Motesanib + Vorinostat (first compound 1 µM).

For PC-3 [JPC-3], the relative viability in the assay with Motesanib + AZD7762 (first compound 0.01 µM) is 0.779; with Motesanib + AZD7762 (first compound 0.03162 µM), 0.751; in the assay with Motesanib + AZD7762 (first compound 0.1 µM) it was 0.727; with Motesanib + AZD7762 (first compound 0.3162 µM), 0.731; in the assay with Motesanib + AZD7762 (first compound 1 µM) it was 0.683; in the assay with Motesanib + Vorinostat (first compound 0.01 µM), 0.686. Besides, the relative viability with Motesanib + Vorinostat (first compound 0.03162 µM) is 0.71; with Motesanib + Vorinostat (first compound 0.1 µM), 0.774; with Motesanib + Vorinostat (first compound 0.3162 µM) it was 0.828; with Motesanib + Vorinostat (first compound 1 µM), 0.789.

Take PC-14: the relative viability with Motesanib + AZD7762 (first compound 0.01 µM) is 0.306; with Motesanib + AZD7762 (first compound 0.03162 µM) it was 0.296; in the assay with Motesanib + AZD7762 (first compound 0.1 µM), 0.286; in the assay with Motesanib + AZD7762 (first compound 0.3162 µM) it was 0.41; in the assay with Motesanib + AZD7762 (first compound 1 µM) it was 0.329; with Motesanib + Vorinostat (first compound 0.01 µM), 0.702. Further, the relative viability with Motesanib + Vorinostat (first compound 0.03162 µM) was 0.867; with Motesanib + Vorinostat (first compound 0.1 µM), 0.778; in the assay with Motesanib + Vorinostat (first compound 0.3162 µM), 0.806; with Motesanib + Vorinostat (first compound 1 µM), 0.771.

With RERF-LC-KJ, the relative viability amounted to 0.9 with Motesanib + AZD7762 (first compound 0.01 µM); 0.873 with Motesanib + AZD7762 (first compound 0.03162 µM); 1.06 in the assay with Motesanib + AZD7762 (first compound 0.1 µM); 1.03 with Motesanib + AZD7762 (first compound 0.3162 µM); 0.813 with Motesanib + AZD7762 (first compound 1 µM); 0.625 in the assay with Motesanib + Vorinostat (first compound 0.01 µM). Moreover, the relative viability was 0.711 in the assay with Motesanib + Vorinostat (first compound 0.03162 µM), 0.745 with Motesanib + Vorinostat (first compound 0.1 µM), 0.808 with Motesanib + Vorinostat (first compound 0.3162 µM) and 0.789 in the assay with Motesanib + Vorinostat (first compound 1 µM).

As for SW 900, the relative viability with Motesanib + AZD7762 (first compound 0.01 µM) was 0.787; with Motesanib + AZD7762 (first compound 0.03162 µM), 0.786; with Motesanib + AZD7762 (first compound 0.1 µM) it was 0.552; with Motesanib + AZD7762 (first compound 0.3162 µM), 0.523; with Motesanib + AZD7762 (first compound 1 µM), 0.726; with Motesanib + Vorinostat (first compound 0.01 µM) it was 0.542. Moreover, the relative viability with Motesanib + Vorinostat (first compound 0.03162 µM) was determined as 0.404; with Motesanib + Vorinostat (first compound 0.1 µM) it was 0.574; with Motesanib + Vorinostat (first compound 0.3162 µM), 0.649; with Motesanib + Vorinostat (first compound 1 µM), 0.59.
